We go through four molecules from paper PMC3774784 (Bioorganic & medicinal chemistry letters, 2011).

One experiment deals with human VEGFR2 kinase (Homo sapiens, UniProt P35968). The experiment is described as follows: KDR ELISA assay. It is filed as biochemical.
For experiment [1], the system named is KDR. Particulars: read-out: reported IC50 value; final ATP concentration 2 μM; cited from earlier work.
Experiment [2] concerns KDR. Particulars: read-out: Reported KDR Inhibition IC50; cited from earlier work.

Read-outs that look alike come from different tables or passages of the source.

Sequence of human VEGFR2 kinase (P35968 790-1356 limits assumed): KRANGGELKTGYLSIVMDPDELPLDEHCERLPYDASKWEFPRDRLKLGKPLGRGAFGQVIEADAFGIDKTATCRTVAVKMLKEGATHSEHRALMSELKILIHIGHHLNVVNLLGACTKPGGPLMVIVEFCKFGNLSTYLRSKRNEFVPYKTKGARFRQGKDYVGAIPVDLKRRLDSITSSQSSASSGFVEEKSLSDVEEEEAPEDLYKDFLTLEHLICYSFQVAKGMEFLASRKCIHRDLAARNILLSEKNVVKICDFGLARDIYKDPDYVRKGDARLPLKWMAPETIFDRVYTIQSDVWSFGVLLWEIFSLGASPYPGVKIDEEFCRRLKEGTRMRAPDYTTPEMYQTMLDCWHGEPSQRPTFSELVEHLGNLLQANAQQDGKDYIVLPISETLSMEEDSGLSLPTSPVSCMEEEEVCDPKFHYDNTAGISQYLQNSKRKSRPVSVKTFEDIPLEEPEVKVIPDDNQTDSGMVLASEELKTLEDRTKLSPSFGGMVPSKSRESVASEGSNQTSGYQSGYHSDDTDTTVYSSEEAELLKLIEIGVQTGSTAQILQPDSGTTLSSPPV

As to `COc1cc2nccc(Oc3ccc(NC(=O)Nc4ccc(F)cc4F)c(F)c3)c2cc1OC` [Ki8751, reference compound], the IC50 on human VEGFR2 kinase (read-out: KDR IC50, 20 μM ATP) was 800 nM; in the experiment on KDR [1], 0.9 nM.

`COc1cc2ncnc(Nc3ccc(Cl)cc3)c2cc1OC` [Compound 10, (4-Chloro-phenyl)-(6,7-dimethoxy-quinazolin-4-yl)-amine]: in the experiment on KDR [2], the IC50 is 800 nM. Also, the “KDR assay activity in words” value at human VEGFR2 kinase was “relatively inactive”.

For `COc1ccc(-c2cnc3c(-c4ccsc4)cnn3c2)cc1` [Compound 21, 6-(4-Methoxy-phenyl)-3-thiophen-3-yl-pyrazolo[1,5-a]pyrimidine], the “KDR assay activity in words” value on human VEGFR2 kinase is given as “active”.

Consider `COc1cc2ncnc(Nc3ccc(C)c(F)c3)c2cc1OC` [Compound 14, (6,7-Dimethoxy-quinazolin-4-yl)-(3-fluoro-4-methyl-phenyl)-amine], for which the IC50 at human VEGFR2 kinase was 2500 nM.
